US9259401B2 (priority 2011, dated 2016)

Assays:
Male Laca mice = test: Porsolt Forced Swim test (behavioural despair test); type: in vivo
Method: Method: Porsolt Forced Swim test (also called behavioural despair test)
Animals are subjected to two trials during which they are force to swim in an acrylic glass cylinder filled with water and from which they cannot escape. The first trial lasts 15 minutes. Then, after 24-hours, a second trial is performed which lasts 5 minutes. The time that the animal spends without moving in the second trial is measured. This immobility time is decreased by antidepressants.
After some time, the mice give up the attempt to escape from the water and subside into immobility. The duration of the immobility is measured. An animal was considered to be immobile whenever it remained floating passively in the water in a slightly hunched but upright position, its nose above the water surface. […] The total immobility period during the 6-min test was recorded with the help of stopwatch.
The immobility period data obtained from tables 1, 2 and 3 is plotted against the dose administered in FIG. 1, FIG. 2 and FIG. 3 respectively, as shown in the drawing accompanying this specification.
Test Procedures: Porsolt Forced Swim test. Rectangular glass jar (25×12×25 cm^3) containing 15 cm of water maintained at 24±1° C.
The immobility period data obtained from Tables 4, 5, 6 and 7 is plotted against the dose administered in FIG. 4, FIG. 5, FIG. 6 and FIG. 7 respectively, as shown in the drawing accompanying this specification.

Dopamine = test: Biological amine levels by HPLC-ECD after 45 min: dopamine; type: in vivo, mice; conditions: fluoxetine 10 mg/kg
Method: (§1) Test Substances: […] Animals: Male Laca mice. Test Procedures: Animals were sacrificed after 45 min of drug administration similar to the time period of behavioral observations. HPLC-ECD detector: Mobile phase—Phosphate buffer: […] • Column—ODS-3 C-18 column (250×4.6 mm I.D.; 5 μm particle size)

5-hydroxytryptamine = test: Biological amine levels by HPLC-ECD after 45 min: 5-hydroxytryptamine; type: in vivo, mice; conditions: fluoxetine 10 mg/kg
Method: as §1

Norepinephrine = test: Biological amine levels by HPLC-ECD after 45 min: norepinephrine; type: in vivo, mice; conditions: fluoxetine 10 mg/kg
Method: as §1

[1] = Table 7, tranylcypromine alone 5 mg/kg ip
[2] = Table 4, fluoxetine alone 5 mg/kg ip
[3] = Table 6, desipramine alone 5 mg/kg ip
[4] = Table 5, venlafaxine alone 2 mg/kg ip

Compound: N[C@@H]1C[C@H]1c1ccccc1 (racemic) [Tranylcypromine]
- % Decrease in immobility w.r.t vehicle group (Male Laca mice; [1]): 15.15%
- Immobility period (Male Laca mice; [1]): 234 ± 20.41 s

Compound: CNCCC(Oc1ccc(C(F)(F)F)cc1)c1ccccc1 (centres unmarked) [Fluoxetine]
- Dopamine % increase w.r.t Control (Dopamine): 12.15%
- Dopamine (ng/mg tissue) (Dopamine; n = 5): 6.09 ± 0.54 ng/mg tissue
- 5-hydroxytryptamine % increase w.r.t Control (5-hydroxytryptamine): 36.52%
- 5-hydroxytryptamine (ng/mg tissue) (5-hydroxytryptamine; n = 5): 5.42 ± 0.13 ng/mg tissue
- Norepinephrine % increase w.r.t Control (Norepinephrine): 40.87%
- Norepinephrine (ng/mg tissue) (Norepinephrine; n = 5): 4.17 ± 0.23a ng/mg tissue
- % Decrease in immobility w.r.t saline treated group (Male Laca mice; Table 1, fluoxetine 10 mg/kg): 74.30%
- Immobility period (Male Laca mice; Table 1, fluoxetine 10 mg/kg): 57 ± 17.45 s
- % Decrease in immobility w.r.t saline treated group (Male Laca mice; Table 2, fluoxetine 10 mg/kg): 70.51%
- Immobility period (Male Laca mice; Table 2, fluoxetine 10 mg/kg): 57 ± 17.45 s
- % Decrease in immobility w.r.t saline treated group (Male Laca mice; Table 3, fluoxetine 10 mg/kg): 70.51%
- Immobility period (Male Laca mice; Table 3, fluoxetine 10 mg/kg): 57 ± 17.45 s
- % Decrease in immobility w.r.t saline group (Male Laca mice; [2]): 12.30%
- Immobility period (Male Laca mice; [2]): 172.75 ± 10.4 s

Compound: CNCCCN1c2ccccc2CCc2ccccc21 [Desipramine]
- % Decrease in immobility w.r.t vehicle group (Male Laca mice; [3]): 17.46%
- Immobility period (Male Laca mice; [3]): 211.5 ± 21.97 s

Compound: COc1ccc(C(CN(C)C)C2(O)CCCCC2)cc1 (centres unmarked) [Venlafaxine]
- % Decrease in immobility w.r.t vehicle group (Male Laca mice; [4]): 8.69%
- Immobility period (Male Laca mice; [4]): 193.8 ± 13.26 s
